Laboratory results reported in patent US7279582B2, “Retroviral protease inhibiting compounds” (priority 1995, dated 2007).

Tests used:
[1] = target: HIV protease (Human immunodeficiency virus type 1 group M subtype B, UniProt P04585); experiment: Fluorogenic assay for screening inhibitors of HIV protease; type: biochemical
Experimental: Fluorogenic Assay for Screening Inhibitors of HIV Protease
The inhibitory potency of the compound of the invention can be determined by the following method.
The compound of the invention is dissolved in DMSO and a small aliquot further diluted with DMSO to 100 times the final concentration desired for testing. The reaction is carried out in a 6×50 mm tube in a total volume of 300 microliters. The final concentrations of the components in the reaction buffer are: 125 mM sodium acetate, 1 M sodium chloride, 5 mM dithiothreitol, 0.5 mg/ml bovine serum albumin, 1.3 μM fluorogenic substrate, 2% (v/v) dimethylsulfoxide, pH 4.5. After addition of inhibitor, the reaction mixture is placed in the fluorometer cell holder and incubated at 30° C. for several minutes. The reaction is initiated by the addition of a small aliquot of cold HIV protease. The fluorescence intensity (excitation 340 nm, emmision 490 nM) is recorded as a function of time. The reaction rate is determined for the first six to eight minutes. The observed rate is directly proportional to the moles of substrate cleaved-per unit time. The percent inhibition is 100×(1−(rate in presence of inhibitor)/(rate in absence of inhibitor)).
Fluorogenic substrate: Dabcyl-Gaba-Ser-Gln-Asn-Tyr-Pro-lle-Val-Gln-EDANS wherein DABCYL=4-(4-dimethylamino-phenyl)azobenzoic acid, Gaba=γ-aminobutyric acid, and EDANS=5-((2-aminoethyl)amino)-naphthalene-1-sulfonic acid.

[2] = system: HIVIIIB; experiment: Anti-HIV activity in MT4 cells infected with HIVIIIB (MTT readout); type: cell-based; settings: 0% plasma, 5 days, n=4 duplicate determinations
Description: (§1) The anti-HIV activity of the compound of the invention can be determined in MT4 cells according to the following procedure. MT4 cells were infected with cell-free supernatant of HIVIIIB (previously frozen with known 50% tissue culture infectious dose (TCID50) at 0.003 multiplicity of infection (MOI) for one hour. After one hour infection, cells were washed twice to remove residual viruses, resuspended in culture media and seeded into 96-well tissue culture plates at 1×10^4 cells per well with various half-log dilutions of compounds. Uninfected cells are included as toxicity and cell controls. RPMI 1640 media (Gibco) with 10% fetal bovine serum were used as culture media. Various concentrations of human serum (Sigma) 50%, 25% and 12.5% were added to culture media resulting in final concentration of 60%, 35% and 22.5% total serum. All assay plates were incubated in 37 deg. cent. incubator for 5 days. MTT (sigma, 5 mg/ml stock in PBS) was added to all wells at 25 ul per well, incubate for 4 hours. 20% SDS with 0.02 N HCI in water was added at 50 ul per well to lyse cells. Plates incubated overnight for complete lyses were read on a microtitre plate reader at 570/650 nm wavelengths to determine cell optical density (O.D.). Raw data were analysed for percent inhibition by the following formula: O.D. test well−O.D. virus control×100 O.D. cell control−O.D. virus control The 50% effective concentration (EC50) was calculated by the median effect equation (Chou, 1975, Proc. Int. Cong. Pharmacol. 6th p. 619) to determine the efficacy of compound. The 50% lethal concentration (LC50) was calculated using uninfected MT4 cells.
(§2) Under these conditions, the following data were obtained (n=4 duplicate determinations: […]

[3] = system: uninfected MT4 cells; type: cell-based; settings: n=4 duplicate determinations, read-out: LC50 (the source's name)
Description: as §1, §2

[4] = Inhibitor Concentration 0.5 nanomolar

Row | Structure (SMILES) | Percent Inhibition [1, 4] | IC50 [2] | CC50 [3] | Percent Inhibition ([1]; Inhibitor Concentration 1.0 nanomolar)
1 | CC(C)[C@@H](C(=O)N[C@@H](Cc1ccccc1)C[C@H](O)[C@H](Cc1ccccc1)NC(=O)O[C@@H]1CCS(=O)(=O)[C@@H]1C(C)C)N1CCCNC1=O (racemic) [Example 22E, (2S,3S,5S)-2-(cis(±)-1,1-Dioxo-2-isopropyl-3-tetrahydrothiophenoxy)amino-3-hydroxy-5-(2S-(1-tetrahydropyrimid-2-onyl)-3-methylbutanoyl)amino-1,6-diphenylhexane] | 71.8% | – | – | –
2 | Cc1cccc(C)c1/C=C/C(=O)N[C@@H](Cc1ccccc1)[C@@H](O)C[C@H](Cc1ccccc1)NC(=O)[C@H](C(C)C)N1CCCNC1=O (relative stereo) [Example 19E] | 68.5% | 0.395 µM | 18000 nM | –
3 | Cc1cccc(C)c1OCC(=O)N[C@@H](Cc1ccccc1)[C@@H](O)C[C@H](Cc1ccccc1)NC(=O)[C@H](C(C)C)N1CCNC1=O [Example 1P, (2S,3S,5S)-2-(2,6-dimethylphenoxyacetyl)amino-3-hydroxy-5-[2S-(1-imidazolidin-2-onyl)-3-methyl-butanoyl]amino-1,6-diphenylhexane] | 92.6% | 0.01 µM | 41300 nM | –
4 | Cc1cccc(C)c1OCC(=O)N[C@@H](Cc1ccccc1)[C@@H](O)C[C@H](Cc1ccccc1)NC(=O)[C@H](C(C)C)N1CCCNC1=O [Example 2B, (2S,3S,5S)-2-(2,6-Dimethylphenoxyacetyl)amino-3-hydroxy-5-[2S-(1-tetrahydro-pyrimid-2-onyl)-3-methylbutanoyl]amino-1,6-diphenylhexane] | 93.2% | 0.016 µM | 17800 nM | –
5 | Cc1cccc(C)c1OCC(=O)N[C@@H](Cc1ccccc1)[C@@H](O)C[C@H](Cc1ccccc1)NC(=O)[C@H](C(C)C)N1CCOC1=O [Example 3C, (2S,3S,5S)-2-(2,6-Dimethylphenoxyacetyl)amino-3-hydroxy-5-[2S-(3-oxazolidin-2-onyl)-3-methyl-butanoyl]amino-1,6-diphenylhexane] | 86.9% | 0.025 µM | 49500 nM | –
6 | CC(C)[C@@H](C(=O)N[C@@H](Cc1ccccc1)C[C@H](O)[C@H](Cc1ccccc1)NC(=O)O[C@H]1CO[C@H]2OCC[C@H]21)N1CCN(C)C1=O [Example 4F, (2S,3S,5S)-2-[(3R, 3aS, 6aR)-Bis-tetrahydrofuranyloxy]amino-3-hydroxy-5-[2S-(3-methyl-1-imidazolidin-2-onyl)-3-methylbutanoyl]amino-1,6-diphenylhexane] | 49.7% | 0.101 µM | > 100000 nM | –
7 | CC(C)[C@@H](C(=O)N[C@@H](Cc1ccccc1)C[C@H](O)[C@H](Cc1ccccc1)NC(=O)O[C@H]1CO[C@H]2OCC[C@H]21)N1CCNC1=O [Example 5, (2S,3S,5S)-2-[(3R,3aS,6aR)-Bis-tetrahydrofuranyloxy]amino-3-hydroxy-5-[2S-(1-imidazolidin-2-onyl)-3-methylbutanoyl]amino-1,6-diphenylhexane] | 80.8% | 0.368 µM | > 100000 nM | –
8 | CC(C)[C@@H](C(=O)N[C@@H](Cc1ccccc1)C[C@H](O)[C@H](Cc1ccccc1)NC(=O)OCc1cncs1)N1CCNC1=O [Example 6F, (2S,3S,5S)-2-(N-((5-Thiazolyl)methoxycarbonyl)amino)-5-((2S-(1-imidazolidin-2-onyl)-3-methyl-butanoyl)-amino)-3-hydroxy-1,6-diphenylhexane] | 61.4% | 0.193 µM | > 100000 nM | –
9 | CC(C)(C)[C@@H](C(=O)N[C@@H](Cc1ccccc1)C[C@H](O)[C@H](Cc1ccccc1)NC(=O)OCc1cncs1)N1CCNC1=O [Example 7B, (2S,3S,5S)-2-(N-((5-Thiazolyl)-methoxycarbonyl)amino)-3-hydroxy-5-(2S-(1-imidazolidin-2-onyl)-3,3-dimethylbutanoyl)amino-1,6-diphenylhexane] | 67.1% | 0.204 µM | > 100000 nM | –
10 | Cc1cccc(C)c1OCC(=O)N[C@@H](Cc1ccccc1)[C@@H](O)C[C@H](Cc1ccccc1)NC(=O)[C@@H](N1CCNC1=O)C(C)(C)C [Example 8, (2S,3S,5S)-2-(2,6-Dimethylphenoxyacetyl)amino-3-hydroxy-5-(2S-(1-imidazolidin-2-onyl)-3,3-dimethylbutanoyl)amino-1,6-diphenylhexane] | 55.6% | 0.019 µM | 17800 nM | –
11 | Cc1cccc(C)c1OCC(=O)N[C@@H](Cc1ccccc1)[C@@H](O)C[C@H](Cc1ccccc1)NC(=O)[C@H](C(C)C)N1CCNC1=S [Example 9B, (2S,3S,5S)-2-(2,6-Dimethylphenoxyacetyl)amino-3-hydroxy-5-(2S-(1-imidazolidin-2-thionyl)-3-methylbutanoyl)amino-1,6-diphenylhexane] | 62.6% | 0.272 µM | 19300 nM | –
12 | Cc1cc(N)cc(C)c1OCC(=O)N[C@@H](Cc1ccccc1)[C@@H](O)C[C@H](Cc1ccccc1)NC(=O)[C@H](C(C)C)N1CCNC1=O [Example 10F, (2S,3S,5S)-2-(4-Amino-2,6-dimethylphenoxyacetyl)amino-3-hydroxy-5-(2S-(1-imidazolidin-2-onyl)-3-methyl-butanoyl)amino-1,6-diphenylhexane] | 81.0% | 0.047 µM | 92000 nM | –
13 | Cc1cc(C)c(OCC(=O)N[C@@H](Cc2ccccc2)[C@@H](O)C[C@H](Cc2ccccc2)NC(=O)[C@H](C(C)C)N2CCNC2=O)c(C)c1 [Example 11B, (2S,3S,5S)-2-(2,4,6-Trimethylphenoxyacetyl)amino-3-hydroxy-5-(2S-(1-imidazolidin-2-onyl)-3-methylbutanoyl)amino-1,6-diphenylhexane] | 91.1% | 0.19 µM | 18200 nM | –
14 | Cc1cc(F)cc(C)c1OCC(=O)N[C@@H](Cc1ccccc1)[C@@H](O)C[C@H](Cc1ccccc1)NC(=O)[C@H](C(C)C)N1CCNC1=O [Example 12B, (2S,3S,5S)-2-(4-Fluoro-2,6-dimethylphenoxyacetyl)amino-3-hydroxy-5-(2S-(1-imidazolidin-2-onyl)-3-methyl-butanoyl)amino-1,6-diphenylhexane] | 76.8% | 0.093 µM | 19100 nM | –
15 | Cc1ncnc(C)c1OCC(=O)N[C@@H](Cc1ccccc1)[C@@H](O)C[C@H](Cc1ccccc1)NC(=O)[C@H](C(C)C)N1CCNC1=O [Example 13B, (2S,3S,5S)-2-(4,6-Dimethylpyrimidin-5-oxy-acetyl)amino-3-hydroxy-5-(2S-(1-imidazolidin-2-onyl)-3-methyl-butanoyl)amino-1,6-diphenylhexane] | – | – | – | 56.2%
16 | Cc1ccnc(C)c1OCC(=O)N[C@@H](Cc1ccccc1)[C@@H](O)C[C@H](Cc1ccccc1)NC(=O)[C@@H](N1CCNC1=O)C(C)(C)C [Example 14D, (2S,3S,5S)-2-(2,4-Dimethyl-pyridin-3-oxy-acetyl)amino-3-hydroxy-5-(2S-(1-imidazolidin-2-onyl)-3,3-dimethylbutanoyl)amino-1,6-diphenylhexane] | 52.7% | 0.053 µM | > 100000 nM | –
17 | Cc1cccc(C)c1CCC(=O)N[C@@H](Cc1ccccc1)[C@@H](O)C[C@H](Cc1ccccc1)NC(=O)[C@H](C(C)C)N1CCCNC1=O [Example 20D, (2S,3S,5S)-2-(3-(2,6-Dimethylphenyl)propanoyl)amino-3-hydroxy-5-(2S-(1-tetrahydropyrimidin-2-onyl)-3-methyl-butanoyl)amino-1,6-diphenylhexane] | – | 0.283 µM | 24100 nM | –
18 | Cc1cccc(C)c1OCC(=O)N[C@@H](Cc1ccccc1)[C@@H](O)C[C@H](Cc1ccccc1)NC(=O)[C@H](C(C)C)N1CCC(=O)NC1=O [Example 23C, (2S,3S,5S)-2-(2,6-Dimethylphenoxyacetyl)amino-3-hydroxy-5-(2S-(1-dihydropyrimid-2,4-dionyl)-3-methyl-butanoyl)amino-1,6-diphenylhexane] | 86.0% | – | – | –
